In ChEMBL document CHEMBL1137861, “Novel pyrazinone inhibitors of mast cell tryptase: synthesis and SAR evaluation” (Bioorg Med Chem Lett, 2004):

What was measured:
[1] = target: T1, Tryptase beta-1 (Homo sapiens, UniProt Q15661); assay: Inhibitory activity against human Tryptase beta 2 expressed in yeast cells at 5 uM; type: cell-based
[2] = target: T1, Tryptase beta-1; assay: Inhibitory activity against human Tryptase beta 2 expressed in yeast cells at 5 uM; not active; type: cell-based

T1 sequence (Q15661 31-275 limits assumed): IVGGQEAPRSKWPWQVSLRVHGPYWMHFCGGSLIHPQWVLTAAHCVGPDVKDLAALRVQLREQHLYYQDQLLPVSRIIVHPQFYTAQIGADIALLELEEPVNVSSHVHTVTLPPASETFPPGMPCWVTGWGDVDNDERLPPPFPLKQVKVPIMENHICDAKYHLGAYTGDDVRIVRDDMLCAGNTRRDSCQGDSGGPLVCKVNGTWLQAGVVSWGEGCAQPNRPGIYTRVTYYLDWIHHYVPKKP

| SMILES | inhibition [1] [%] | inhibition [2] [%] |
| --- | --- | --- |
| Cc1c(Cl)nc(N[C@H]2CC[C@H](N)CC2)c(=O)n1CC(=O)Nc1cccc(C(N)=O)c1 | 18 |  |
| Cc1c(Cl)nc(Nc2cccc(Cl)c2)c(=O)n1CC(=O)Nc1cccc(CN)c1 |  | 11 |
| Cc1c(Cl)nc(Nc2ccc(F)cc2)c(=O)n1CC(=O)Nc1cccc(CN)c1 |  | 24 |
| Cc1c(Cl)nc(N[C@H]2CC[C@H](N)CC2)c(=O)n1CC(=O)NCCc1c[nH]cn1 | 8 |  |

Results, then the compound that gave them:

| inhibition [1] [%] | inhibition [2] [%] | SMILES |
| --- | --- | --- |
| 16 |  | Cc1c(Cl)nc(N[C@H]2CC[C@H](N)CC2)c(=O)n1CC(=O)Nc1ccc(CN)cc1 |
| 2 |  | Cc1c(Cl)nc(N[C@H]2CC[C@H](N)CC2)c(=O)n1CC(=O)NC1CCC(N)CC1 (some centres undefined) |
| 29 |  | Cc1c(Cl)nc(N[C@H]2CC[C@H](N)CC2)c(=O)n1CC(=O)Nc1ccc(N)cc1 |
| 31 |  | Cc1c(Cl)nc(N[C@H]2CC[C@H](N)CC2)c(=O)n1CC(=O)Nc1ccc(C(N)=O)cc1 |
| 7 |  | Cc1c(Cl)nc(N[C@H]2CC[C@H](N)CC2)c(=O)n1CC(=O)Nc1cccc(N)c1 |
